Values joined by “and” are separate entries in the source; they are usually repeats but may differ in a detail not shown here. Equal entries are not always repeated. After the bases stand the sugars from the 5' end (letter, count) and the backbone: PS all phosphorothioate, else s phosphorothioate and o phosphodiester by linkage. Methylation of C is not given here. e = 2'-O-(2-methoxyethyl) (MOE); k = constrained ethyl (cEt); d = 2'-deoxy (DNA)
Target: IRF4
Settings: ASO

“CCTCAGTTTGTGAAGC (sugars kkddddddddddkeke, PS)” gave a target mRNA inhibition (MM.1R, 1 µM) of 16%.
With ACCCACATAACTCAGG (sugars k3 d10 k3, PS) the target mRNA inhibition (SK-MEL-28, 4 µM) was 31%.
For “GGAAGTTTACACTGGA (sugars e1 k2 d9 k2 e2, PS)”, the target mRNA inhibition (H929, 0.04 µM) was 38% and 36%, the target mRNA inhibition (KMS11, 0.2 µM) was 75% and 80% and the target mRNA inhibition (MM.1R, 0.074 µM) was 13%. The target mRNA inhibition (MM.1R, 0.222 µM) was 35%, the target mRNA inhibition (MM.1R, 0.666 µM) was 66% and the target mRNA inhibition (MM.1R, 1 µM) was 55%. For the same sequence, the target mRNA inhibition (MM.1R, 2 µM) was 87%.
For TTACTCCGCTGAGTGG (sugars k3 d10 k3, PS), the target mRNA inhibition (MM.1R, 1 µM) was -4%.
Sequence GCACGGAGAGGGCGAG (sugars k3 d10 k3, PS) has a target mRNA inhibition (MM.1R, 1 µM) of 4%.
With “GTGATGTCAGGTTTTC (sugars kkdddddddddkekek, PS)” the target mRNA inhibition (MM.1R, 1 µM) was 40%.
With GATAGTTAAGTACTTG (sugars k3 d10 k3, PS) the target mRNA inhibition (SK-MEL-28, 4 µM) was 49%.
With “TGTGTATTACTCTTAG (sugars kkdddddddddkdkdk, PS)” the target mRNA inhibition (H929, 0.04 µM) was 40% and 47%, the target mRNA inhibition (KMS11, 0.2 µM) was 62% and 74% and the target mRNA inhibition (MM.1R, 0.0625 µM) was 54%. The target mRNA inhibition (MM.1R, 0.25 µM) was 62%, the target mRNA inhibition (MM.1R, 1 µM) was 81% and 71% and 72% and the target mRNA inhibition (MM.1R, 4 µM) was 91%.
In the case of CAAAACAGTAAGAGGG (sugars k3 d10 k3, PS), the target mRNA inhibition (SK-MEL-28, 4 µM) is reported as 31%.
AGATAGGAAGCACTGG (sugars k3 d10 k3, PS) showed a target mRNA inhibition (SK-MEL-28, 4 µM) of 46%.
In the case of TCCTGTAGTATGAGAA (sugars k3 d10 k3, PS), the target mRNA inhibition (MM.1R, 1 µM) is reported as 22%.
For GCACAGTCTCTTTTTA (sugars k3 d10 k3, PS), the target mRNA inhibition (SK-MEL-28, 4 µM) was 36%.
For AAACTATAATTGGCAC (sugars k3 d10 k3, PS), the target mRNA inhibition (SK-MEL-28, 4 µM) was 30%.
In the case of CCGCTCAACCAGTTCC (sugars k3 d10 k3, PS), the target mRNA inhibition (MM.1R, 1 µM) is reported as -12%.
Sequence TAAGAAGCACTGGCAT (sugars k3 d10 k3, PS) has a target mRNA inhibition (SK-MEL-28, 4 µM) of 26%.
With CAAAACGCAGAGCCAG (sugars k3 d10 k3, PS) the target mRNA inhibition (SK-MEL-28, 4 µM) was 58%.
For “CAAGCAGTGATGTCAG (sugars kkdddddddddekeke, PS)”, the target mRNA inhibition (MM.1R, 1 µM) was 26% and 34%.
“CTGCTTGAGGTTTTCC (sugars kkkdddddddddkeke, PS)” showed a target mRNA inhibition (MM.1R, 1 µM) of 50%.
Work on GTGCAGACCTGAATAG (sugars k3 d10 k3, PS) yielded a target mRNA inhibition (SK-MEL-28, 4 µM) of 14%.
CAGGTTTCATTTCATT (sugars k4 d8 k4, PS) showed a target mRNA inhibition (MM.1R, 0.074 µM) of 2%, a target mRNA inhibition (MM.1R, 0.222 µM) of 3% and a target mRNA inhibition (MM.1R, 0.666 µM) of 19%. For the same sequence, the target mRNA inhibition (MM.1R, 2 µM) was 15%, the target mRNA inhibition (SK-MEL-28, 0.185 µM) was 14% and 13% and 18% and the target mRNA inhibition (SK-MEL-28, 4 µM) was 54%. For the same sequence, the target mRNA inhibition (SK-MEL-28, 5 µM) was 57% and 55% and 67% and the target mRNA inhibition (SK-MEL-28, 15 µM) was 74% and 72%.
With AAGATCTCCATGGTGC (sugars k3 d10 k3, PS) the target mRNA inhibition (MM.1R, 0.0625 µM) was 4%, the target mRNA inhibition (MM.1R, 0.25 µM) was 10% and the target mRNA inhibition (MM.1R, 1 µM) was 39% and 29%. It also gave a target mRNA inhibition (MM.1R, 4 µM) of 56%.
With CACTGGCATTGAGACG (sugars k3 d10 k3, PS) the target mRNA inhibition (SK-MEL-28, 4 µM) was 69% and 76%.
With AGTTAAGTACTTGGAC (sugars k3 d10 k3, PS) the target mRNA inhibition (SK-MEL-28, 4 µM) was 42%.
Sequence GGCCTCTGAGCAGAAC (sugars k3 d10 k3, PS) has a target mRNA inhibition (SK-MEL-28, 4 µM) of 27%.
GGGAATCCCTTATTAG (sugars k3 d10 k3, PS) showed a target mRNA inhibition (MM.1R, 1 µM) of 0%.
With GGCACAATTCTCTGAG (sugars k3 d10 k3, PS) the target mRNA inhibition (SK-MEL-28, 4 µM) was 43%.
With ATCAGAATGGCGAGTT (sugars k3 d10 k3, PS) the target mRNA inhibition (SK-MEL-28, 4 µM) was 47%.
“ACTGTTACCGATGCTT (sugars k2 d9 e3 k2, PS)” was tested, and the target mRNA inhibition (MM.1R, 1 µM) was 27% and 34%.
CCCCATTGCCTGTTAA (sugars k3 d10 k3, PS) was tested, and the target mRNA inhibition (SK-MEL-28, 4 µM) was 20%.
With “GCATTTTATCATCCGA (sugars kkdddddddddkekek, PS)” the target mRNA inhibition (MM.1R, 1 µM) was 48%.
For “TTATGTTAGCCAATTC (sugars kkdddddddddkekek, PS)”, the target mRNA inhibition (MM.1R, 1 µM) was 11% and 19%.
“GTAGTATGAGAAACGG (sugars kkdddddddddkdkdk, PS)” was tested, and the target mRNA inhibition (MM.1R, 1 µM) was 32%.
With “TGTGCTTGCCAAGCCT (sugars kkdddddddddkekek, PS)” the target mRNA inhibition (MM.1R, 1 µM) was 2% and 18%.
With “TGTGTATTACTCTTAG (sugars kkddddddddddkeke, PS)” the target mRNA inhibition (MM.1R, 1 µM) was 51% and 39%.
For AAACGAGAACGCACGG (sugars k3 d10 k3, PS), the target mRNA inhibition (MM.1R, 1 µM) was 9%.
CTGGACAGCCAAACAA (sugars k3 d10 k3, PS) showed a target mRNA inhibition (SK-MEL-28, 4 µM) of 21%.
Work on GCCATGGCTGATCGCT (sugars k3 d10 k3, PS) yielded a target mRNA inhibition (SK-MEL-28, 4 µM) of 30%.
Sequence CTCACTATTAAACAGC (sugars k3 d10 k3, PS) has a target mRNA inhibition (SK-MEL-28, 4 µM) of 24%.
With TGTCAAACTATAATTG (sugars k3 d10 k3, PS) the target mRNA inhibition (SK-MEL-28, 4 µM) was 15%.
GAGCACATGTCAACAG (sugars k3 d10 k3, PS) showed a target mRNA inhibition (SK-MEL-28, 4 µM) of 40%.
GTTTTTTGACTCAAGA (sugars k3 d10 k3, PS) showed a target mRNA inhibition (SK-MEL-28, 4 µM) of 67%.
Work on GGAGATACTTGTACTG (sugars k3 d10 k3, PS) yielded a target mRNA inhibition (MM.1R, 0.0625 µM) of 2%, a target mRNA inhibition (MM.1R, 0.074 µM) of 16% and a target mRNA inhibition (MM.1R, 0.222 µM) of 25%. For the same sequence, the target mRNA inhibition (MM.1R, 0.25 µM) was 26%, the target mRNA inhibition (MM.1R, 0.666 µM) was 48% and the target mRNA inhibition (MM.1R, 1 µM) was 55%. The target mRNA inhibition (MM.1R, 2 µM) was 77%, the target mRNA inhibition (MM.1R, 4 µM) was 87% and the target mRNA inhibition (SK-MEL-28, 4 µM) was 66%.

From the OligoGym collection
